# Measurements published in PubChem BioAssay (NCI).
# Where “and” joins values, the source holds several entries; their conditions need not be identical. Equal entries are not always repeated.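 Where inhibition never reached the appropriate level, the endpoint shown equals the highest concentration tested. Otherwise, values were interpolated linearly from a five-concentration, 48-hour dose response in 96-well plates. Abbreviation: GI50, concentration required for 50% inhibition of growth. The concentration for full growth arrest is given as TGI.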
# Columns and labels:
# Assay in all cases: DTP human tumour cell line panel, 48 h
# [1] = tested on: BT-549 breast
# [2] = tested on: HCT-15 colon
# [3] = tested on: HOP-62 NSCLC
# [4] = tested on: K-562 leukemia
# [5] = tested on: NCI-H460 lung
# [6] = tested on: NCI-H522 lung
# [7] = tested on: OVCAR-3 ovarian
# [8] = tested on: SK-MEL-2 melanoma
# [9] = tested on: SN12C renal
# [10] = tested on: SW-620 colon
SMILES,GI50 [1] [µM],TGI [1] [µM],GI50 [2] [µM],TGI [2],GI50 [3] [µM],TGI [3],GI50 [4] [µM],TGI [4],GI50 [5] [µM],TGI [5] [µM],GI50 [6] [µM],TGI [6],GI50 [7] [µM],TGI [7] [µM],GI50 [8] [µM],TGI [8],GI50 [9] [µM],TGI [9],GI50 [10] [µM],TGI [10] [µM]
O=C1C(=O)c2c(nc3ccc(C(F)(F)F)cn23)-c2ccccc21,0.186,0.442,0.202,0.656 µM,0.169,0.339 µM,0.175,0.787 µM,0.466,1.08,0.206,0.549 µM,0.179,0.443,0.209,0.434 µM,0.186,0.354 µM,0.192,0.397
COC(=O)C(C(=O)C(=O)Nc1c(C)cccc1C(C)(C)C)c1nc2ccc(Cl)cc2[nH]c1=O (stereo not given),,> 100,,> 100 µM,,> 100 µM,,> 100 µM,,> 100,,> 100 µM,,> 100,,> 100 µM,,> 100 µM,,> 100
COc1cc(N2C(=O)[C@H](Cl)C2c2ccc(SC)cc2)cc(OC)c1OC (stereo not given in full),0.0989,0.748,0.047,> 100 µM,0.263,> 100 µM,0.0366,> 100 µM,0.362,11.6,0.0299,0.263 µM,0.0294,0.089,0.3,> 100 µM,0.348,> 100 µM,0.0453,> 100
COc1cc(/C=N/NC(=O)c2cnn3c2NC(c2ccccc2)C3)ccc1OC1CCCC1 (stereo not given),1.46,5.74,0.5,10.8 µM,0.83,6.47 µM,0.348,> 30.4 µM,0.389,1.56,0.475,6.54 µM,0.262,0.697,0.948,6.06 µM,1.85,9.61 µM,0.468,2.38
COc1ccc(-n2c(=S)sc3c(Cl)nc(C)nc32)c(OC)c1,1.99,4.28,1.96,5.43 µM,2.57,7.68 µM,1.19,3.79 µM,3.12,9.04,1.84,3.89 µM,1.8,3.26,2.04,3.97 µM,2.85,9.14 µM,2.57,5.44
CCOC(=O)Nc1ccc2nc(-c3cscn3)[nH]c2c1,7.1,> 100,2.2,> 100 µM,4.91,> 100 µM,0.942,> 100 µM,4.05,> 100,2.43,21 µM,3.79,23.4,3.25,> 100 µM,5.6,> 100 µM,2.95,> 100
Clc1ccccc1C(Nc1cnccn1)Nc1cnccn1,,> 100,,> 100 µM,,> 100 µM,,> 100 µM,,> 100,,> 100 µM,,> 100,,> 100 µM,,> 100 µM,,> 100
CN1CCN(C2=NC(=O)/C(=C\c3ccc(N(C)C)cc3)S2)CC1,> 100,> 100,> 100,> 100 µM,> 100,> 100 µM,> 100,> 100 µM,> 100,> 100,> 100,> 100 µM,> 100,> 100,> 100,> 100 µM,> 100,> 100 µM,> 100,> 100
CN(C)CCC(=O)Nc1ccc(-n2cc(-c3cccc(NC(=S)Nc4cccc(-c5cn(-c6ccc(NC(=O)CCN(C)C)cc6)nn5)c4)c3)nn2)cc1,22.9,66.4,> 100,> 100 µM,33.1,> 100 µM,4.49,> 100 µM,26.6,96.6,27.3,> 100 µM,16.4,53.4,39.5,> 100 µM,61.5,> 100 µM,4.26,> 100
O=C1NC(=NCCc2ccc(Cl)cc2)S/C1=C\c1ccc2ncccc2c1,13.9,> 25,12.9,> 25 µM,14.3,> 25 µM,> 25,> 25 µM,17.8,> 25,3.41,> 16 µM,> 25,> 25,8.28,> 25 µM,> 25,> 25 µM,14.2,> 25
N#C/C(=C\c1ccc2[nH]ccc2c1)C(=O)NCCCCNC(=O)/C(C#N)=C/c1ccc2[nH]ccc2c1,,> 10,,> 31.6 µM,,> 31.6 µM,,> 31.6 µM,,> 31.6,,> 31.6 µM,,> 31.6,,> 31.6 µM,,> 31.6 µM,,> 31.6
Cc1cccc(N2C(=O)/C(=C/C(Cl)=C/c3ccc([N+](=O)[O-])cc3)SC2=S)c1C,1.61,4.08,0.874,4.77 µM,2.69,9.02 µM,0.793,> 100 µM,,,2.18,5.58 µM,1.83,3.87,3.85,> 100 µM,2.03,5.05 µM,1.95,4.77
CCCCCCCC/C=C/CCCCCCCC1=NC(C)(C)CN1C(C)(C)CO,11.3,24.1,,,1.76,3.28 µM,2.12,5.48 µM,1.81,3.31,1.83,3.7 µM,1.74,3.13,1.76,3.67 µM,2.25,6.67 µM,1.63,3.11
OCc1ccc(N(Cc2ccc(F)cc2)Cc2ccc(F)cc2)cc1Cl,13.5,28.4,9.88,24.2 µM,10.9,23.2 µM,4.93,23.1 µM,3.64,17.1,9.39,25.9 µM,10.3,22.7,10.6,26.9 µM,11.5,26 µM,6.21,20.7
Cn1c(COC(=O)NCCc2ccccn2)nc2c(N3CCOCC3)nc(Cl)nc21,1.71,4.06,1.14,3.2 µM,1.65,4.88 µM,1.63,75.2 µM,1.62,3.63,1.35,3.16 µM,1.08,2.58,1.88,3.81 µM,1.37,3.48 µM,1.28,2.98
C[C@@]1(F)[C@H](O)[C@@H](CO)O[C@H]1n1ccc(=O)[nH]c1=O,> 100,> 100,> 100,> 100 µM,> 100,> 100 µM,> 100,> 100 µM,> 100,> 100,> 100,> 100 µM,> 100,> 100,> 100,> 100 µM,> 100,> 100 µM,> 100,> 100
[N-]=[N+]=CC(=O)CCC(N)C(=O)O (stereo not given),,> 250,2,> 222 µM,,43.2 µM,3.27,> 250 µM,2.93,147,0.963,> 149 µM,1.45,> 244,24.6,245 µM,4.86,248 µM,12.6,> 250
CCCCNC(c1ccc(Cl)cc1)C(O)c1ccc(Cl)cc1 (stereo not given),5.63,21.4,2.08,5.7 µM,2.19,9.71 µM,2.11,5.68 µM,1.76,4.41,1.56,3.51 µM,1.98,4.83,1.81,3.68 µM,2.16,10.6 µM,1.78,3.93
COc1ccc2c(c1)C(=O)c1c-2c(OCCCN(C)C)nc2cc(Br)ccc12,13.5,28,4.75,18.3 µM,1.81,4.29 µM,6.75,23.1 µM,2.54,7.57,7.05,21.9 µM,3.45,13.4,19.1,36.3 µM,2.01,4.51 µM,5.2,20
C[C@@H]1C[C@@H]([C@H](O)CC2CC(=O)NC(=O)C2)C(=O)[C@@H](C)C1,0.927,9.01,0.284,15.9 µM and 9.96 µM,0.26,3.63 µM and 1.67 µM,0.165,11.9 µM and 2.93 µM,0.234,,0.126,0.643 µM and 0.549 µM,0.675,,0.164,1.07 µM and 3.27 µM,0.106,7.38 µM and 0.793 µM,0.219,1.23
CCC[CH2][Sn-]([CH2]CCC)([CH2]CCC)[O]C(=O)C(C)C,0.135,0.312,0.117,0.249 µM,0.157,0.297 µM,0.146,0.315 µM,0.0571,0.197,,,0.114,0.238,0.189,0.411 µM,0.158,0.318 µM,0.124,0.272
C/C(=N/NC(=S)Nc1ccccc1)c1nc2ccc(Cl)cc2[nH]1,0.135,0.924,0.0656,6.9 µM,0.101,0.935 µM,0.147,13.4 µM,0.0351,0.522,0.194,0.821 µM,0.0777,1.26,0.252,0.901 µM,,,0.208,0.99
N=C1CCCC1C(=S)SCCC(N)=O (stereo not given),,> 100,,> 100 µM,,> 100 µM,,,,> 100,,> 100 µM,,> 100,,> 100 µM,,> 100 µM,,> 100
COC1=CC(=O)O/C1=C(\OC)C1OC1c1ccccc1 (stereo not given),,> 100,,> 100 µM,,> 100 µM,,,,> 100,,> 100 µM,,> 100,,> 100 µM,,> 100 µM,,> 100
O=c1c(Cc2ccc3c(c2)OCO3)nnc2sc(-c3cc(F)c(Cl)cc3Cl)nn12,27.4,56,70.6,> 100 µM,18.1,64.7 µM,42.8,> 100 µM,50.8,> 100,33.4,> 100 µM,38,> 100,,,62.6,> 100 µM,19.4,49.1
O=C(Nc1ccc(Cl)cc1C(F)(F)F)C(=O)Nn1c(=S)[nH]c2ccccc2c1=O,,> 100,,> 100 µM,,> 100 µM,,> 100 µM,,> 100,,,,> 100,,> 100 µM,,> 100 µM,,> 100
Cc1cccc(C2NC(=O)c3ccccc3N2)c1 (stereo not given),,> 100,,> 100 µM,,97.1 µM,,,,> 100,,46.1 µM,,> 100,,> 42.8 µM,,> 100 µM,,> 100
Cn1c(I)c(C#C[Si](C)(C)C)c(=O)n(C(=O)c2ccccc2)c1=O,12.2,25.6,2.45,7.3 µM,11.7,25.8 µM,,,8.34,26.2,4.19,8.99 µM,1.79,3.29,12.8,26 µM,6.26,18.8 µM,2.01,4.27
